pEC50, pIC50: −log10 of the molar value.
Tests used:
[1] = biological target: interaction between PD-1 and PD-L1 (Homo sapiens (Human), UniProt Q9NZQ7); assay: PD1-PDL1 HTRF binding activity test (Cisbio PD-1/PD-L1 binding assay kit)
Protocol: I. PD1-PDL1 HTRF Binding Activity Test
The effect of compounds of the examples of the present invention on the interaction between PD-1 and PD-L1 was determined by the PD-1/PD-L1 binding assay kit from Cisbio (#64ICP01PEG or 64ICP01PEH). The detailed experimental process was as follows: • 1. Pre-diluted compound solution, 4 μL of Tag1-PD-L1 and 4 μL of Tag2-PD1 were added to each well of a 384-well plate; • 2. After the mixture was incubated at room temperature for 15 min, 5 μL of anti-Tag1-Eu3+ antibody and 5 μL of anti-Tag2-XL665 antibody were then added; • 3. After incubated for 2 hrs at room temperature or overnight at 4° C., plates were read on Envision of Pelkin Elmer; and readings at 665 nm and 620 nm were recorded, and the ratio of the two readings was taken as a reading for each well; • 4. The reading of each well after compound treatment was compared with the reading of DMSO treated wells to obtain the percent inhibition of the compound; • 5. IC50 values of compounds and positive compounds of the examples of the present invention were determined by non-linear regression analysis of percent inhibition at different compound concentrations. II. Jurkat Reporter Gene Cellular Assay

[2] = Jurkat reporter gene cellular assay; type: cell-based; settings: Homo sapiens; Jurkat/NF-κB-luc/PD1 + Raji-PD-L1 coculture, OKT3 1 μg/mL, 6 hrs, activation fold; read-out: Cell Activity EC50
Procedure, shortened: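 Jurkat cells stably expressing human PD-1 and NF-κB-luciferase co-cultured with PD-L1-expressing Raji cells (5×10^4 each/well) under OKT3 (1 μg/mL final) with compound. Raji cells preincubated 20 min; luminescence read 6 h after Jurkat addition. EC50 from non-linear regression of fold activation over DMSO.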

[3] = Pharmacokinetic assay in mice; type: in vivo; settings: male, mouse; ICR mice, PO 10 mg/kg, plasma, original compound detected
Protocol: III. Pharmacokinetic Assay in Mice
The purpose of this study was to study the pharmacokinetic behaviors of some compounds of the present invention, and administration routes were: per oral administration (PO) to ICR mice at a dose of 10 mg/kg.
The compounds used in this test came from the compounds of the specific examples of the present invention.
ICR mice, male, N=3, with the original source of Shanghai Sippr-BK Laboratory Animal Co. Ltd.
2.3 Preparation and Administration of Drug
The compounds were weighed, and dissolved in a solvent of 0.5% SDS+0.5% CMCNa. The mixture solutions were mixed well by shaking and ultrasonic treatment to obtain colorless clear solutions. The solutions were orally administered to nine mice after an overnight fast. The dosage of administration was 10 mg/kg.
1) With about 90 μL/time point, blood was drawn from the submaxillary vein, and heparin sodium was added for anticoagulation. The blood samples were placed onto the ice, and were centrifuged (centrifugation conditions: 8000 r/min, 6 min, 2-8° C.) within 1 hr to obtain plasmas.
2) The time points for blood sampling were at 0 hr, 0.25 hr, 0.5 hr, 1 hr, 2 hrs, 4 hrs, 6 hrs, 8 hrs and 24 hrs after administration. The samples were stored in a refrigerator at −20° C.
3) 40 μL of plasma sample was added to 160 μL of cold acetonitrile containing an internal standard, and the mixture solution was vortexed for 3 min and centrifuged at 11,000 r/min for 5 min.
4) 100 μL of supernate was taken and added to 100 μL of water, and 5 μL of the sample was taken and analyzed by LC/MS/MS.
Only the original compounds were analyzed for the compounds from the examples of the present invention and the reference compound from Example 158 of WO2020011209A1; and both the original compounds and possible products of ester hydrolysis, namely Example 217, were analyzed for the reference compound from Example 216 of WO2020011209A1.

interaction between PD-1 and PD-L1, sequence (Q9NZQ7 19-238): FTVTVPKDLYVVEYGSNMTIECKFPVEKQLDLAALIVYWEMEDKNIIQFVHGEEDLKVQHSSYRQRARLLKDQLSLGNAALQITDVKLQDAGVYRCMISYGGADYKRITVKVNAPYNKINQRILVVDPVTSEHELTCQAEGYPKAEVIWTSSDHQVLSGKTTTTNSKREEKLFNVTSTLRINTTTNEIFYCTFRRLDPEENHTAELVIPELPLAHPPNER

| Compound | pIC50 [1] | pEC50 [2] | AUC(0-t) [3] | Cmax [3] | MRT [3] | Tmax [3] | half-life [3] |
| --- | --- | --- | --- | --- | --- | --- | --- |
| COc1cc(/C(F)=C/c2cccc(-c3cccc(NC(=O)c4nc5c(n4C)CCN(CCC46CCC(C(=O)O)(CC4)C6)C5)c3Cl)c2Cl)ncc1CN1CCC(C)(O)C1 (stereo not drawn) [Example 49, (Z)-4-(2-(2-((2,2′-dichloro-3′-(2-fluoro-2-(5-((3-hydroxy-3-methylpyrrolidin-1-yl)methyl)-4-methoxypyridin-2-yl)vinyl)-[1,1′-biphenyl]-3-yl)carbamoyl)-1-methyl-1,4,6,7-tetrahydro-5H-imidazo[4,5-c]pyridin-5-yl)ethyl)bicyclo[2.2.1]heptane-1-carboxylic acid] | 9.63 | 7.34 | 15100 ng·h/mL | 1010 ng/mL | 7.4 h | 2 h | 4 h |
| COc1cc(/C(F)=C/c2cccc(-c3cccc(NC(=O)c4nc5c(n4C)CCN(CCC46CCC(C(=O)O)(CC4)C6)C5)c3Cl)c2Cl)ncc1CN1CC[C@@](C)(C(=O)O)C1 [Example 75, (R,Z)-1-((6-(2-(3′-(5-(2-(4-carboxybicyclo[2.2.1]heptan-1-yl)ethyl)-1-methyl-4,5,6,7-tetrahydro-1H-imidazo[4,5-c]pyridine-2-carboxamido)-2,2′-dichloro-[1,1′-biphenyl]-3-yl)-1-fluorovinyl)-4-methoxypyridin-3-yl)methyl)-3-methylpyrrolidine-3-carboxylic acid] | 9.73 | 7.26 | 2650 ng·h/mL | 806 ng/mL | 2.9 h | 1.8 h | 1.8 h |
| COc1cc(/C(F)=C/c2cccc(-c3cccc(NC(=O)c4nc5c(n4C)CCN(CCC46CCC(C(=O)O)(CC4)C6)C5)c3Cl)c2Cl)ncc1CN1CCCC1 [Example 58, (Z)-4-(2-(2-((2,2′-dichloro-3′-(2-fluoro-2-(4-methoxy-5-(pyrrolidin-1-ylmethyl)pyridin-2-yl)vinyl)-[1,1′-biphenyl]-3-yl)carbamoyl)-1-methyl-1,4,6,7-tetrahydro-5H-imidazo[4,5-c]pyridin-5-yl)ethyl) bicyclo[2.2.1]heptane-1-carboxvlic acid] | 9.72 | 7.36 | 1950 ng·h/mL | 173 ng/mL | 9.6 h | 6 h | 5 h |

From patent publication US12473282B2, “Biphenyl fluorine double bond derivative, preparation method therefor, and pharmaceutical application thereof” (Abbisko Therapeutics Co., Ltd., priority 2020, dated 2025)
